From patent US12616684B2, “Pulmonary fibrosis medicine containing pyrazole derivative” (priority 2020, dated 2026)
Structures can show the parent of a compound that is named as a salt. Where two headings read alike, the source gives them in different places.

Tests used:
[1] = test system: normal human lung fibroblasts (NHLFs); experiment: PMA stimulation-induced reactive oxygen species generation in normal human lung fibroblasts; type: cell-based; details: FIG. 1
Source text: In order to confirm the effect of the compounds of the synthetic examples on the generation of reactive oxygen species from lung fibroblasts, the generation of reactive oxygen species was induced through PMA stimulation in normal human lung fibroblasts (NHLFs, Lonza), and the inhibitory effect of Compound 1 on the generation of reactive oxygen species was observed under this condition. Each cell was suspended in a culture medium containing 10% FBS, seeded in a 96-well plate, and cultured for 24 hours under conditions of 5% CO2 and 37° C. After pre-treating Compound 1 for 30 minutes to 1 hour, TGF-β1 or phorbol 12-myristate 13-acetate (PMA) stimulation was applied to each well including cells and drugs.

[2] = test system: normal human lung fibroblasts (NHLFs); experiment: TGF-β1-induced αSMA and collagen type I expression (myofibroblast differentiation), immunocytochemistry; type: cell-based; details: 10 ng/ml TGF-β1 72 hours, 2 mM Compound 1 pre-treated 1 hour
Method: In order to analyze the effect of Compound 1 on the differentiation of lung fibroblasts into myofibroblasts, the inhibitory effect of Compound 1 on the increase in the expression of TGF-β1-induced α-smooth muscle actin (αSMA) and collagen type I (collagen I) in normal human lung fibroblasts (NHLFs, Lonza) was observed. NHLF cells were suspended in culture medium (FGM-2 Bulletkit media, Lonza) and inoculated at a concentration of 1×10^4 cells/well on a 4-well chamber slide (Nunc). After 24 hours of culture in a CO2 incubator, the medium was replaced with a serum-free medium and further cultured for 12 hours. Thereafter, vehicle and 2 mM Compound 1 were pre-treated in the corresponding wells for 1 hour, and then 10 ng/ml of TGF-β1 was treated in each well except for the negative control (vehicle group) for 72 hours. Confirmation of the expression of αSMA and collagen I in the prepared cells was performed through immunocytochemistry as follows. Cells were fixed in 4% paraformaldehyde for 10 minutes and permeated using 0.1% Triton X-100, and primary antibody (anti-αSMA Ab, 1:200; anti-collagen I Ab, 1:500, reacted for 3 hours at room temperature) and secondary antibody (ALEXA™-594 conjugated Ab, 1:1000, reacted for 1 hour at room temperature) treatment process was sequentially performed, and then the expression of αSMA and collagen I was observed using a fluorescence microscope. […]

[3] = test system: IL-1β; experiment: LPS-induced IL-1β expression in normal human lung fibroblasts, RT-PCR; type: cell-based; details: NHLFs, pre-treated 30 minutes, LPS 6 hours, FIG. 4
[4] = test system: C57BL/6J mice with bleomycin-induced pulmonary fibrosis; experiment: Mouse model with bleomycin-induced pulmonary fibrosis; type: in vivo; details: for improved (modified) Ashcroft score: oral once a day for 28 days, Compound 1 60 mg/kg, nintedanib 100 mg/kg, BLM group 5.5±0.8, mean and standard deviation, FIG. 9
Method: For the mouse model with bleomycin-induced pulmonary fibrosis, C57BL/6J male mice aged 5 weeks and before and after body weight of 20 g were used. C57BL/6J mice were anesthetized by intraperitoneally injection of pentobarbital (40 mg/kg), the skin of the anterior neck or midline was incised, the trachea was exposed with a self-retaining retractor, and then a micro syringe was inserted from the occipital side to the lungs to slowly administer bleomycin (2 mg/kg) while checking the state of respiration. Immediately after injection, the skin of the incised anterior neck or midline was sutured, and then they were bred in a sterile animal room at constant temperature (22-26° C.) and constant humidity (55-60%). By this method, remarkable fibrosis occurred in the lungs, usually after 3 weeks of treatment. Experimental animals were 7 animals in each group, and the experiment was conducted by dividing them into the following groups: a control group (Control) orally administered with distilled water, a group (BLM) with bleomycin-induced pulmonary fibrosis, an experimental group as a positive control group (BLM+Nintedanib) orally administered with 100 mg/kg of nintedanib daily 3 weeks after administration of bleomycin, and an experimental group (BLM+Compound 1) orally administered with 60 mg/kg of Compound 1 daily 3 weeks after administration of bleomycin. Nintedanib and Compound 1 were orally administered once a day for 28 days. On the day after the last administration of nintedanib or compound 1, each animal was anesthetized, and then was bled by cardiac puncture and sacrificed. Lung tissues were enucleated from all animals for histopathological examination. The enucleated lung tissue was fixed in 10% neutral buffered formalin (NBF). The fixed lung tissue was embedded in paraffin and sliced to a thickness of 4 μm to prepare a tissue slide. The tissue slides were subjected to hematoxylin & eosin (H&E) staining, which is cell staining, and Masson's trichrome (MT) staining to confirm fibrosis. Histopathological examination of the prepared tissue slides was confirmed using an optical microscope (Carl Zeiss, Oberkochen, Germany). The severity of fibrosis was assessed using the modified Ashcroft scale, which is a semi-quantitative histopathological scoring. For immunohistochemical staining, the tissue slides prepared above were de-paraffinized, and then rabbit anti-α-smooth muscle actin (SMA) antibody or rabbit anti-collagen type I antibody was used as a primary antibody. And, Vectastatin ABC kit (Vector Laboratories, Inc, Burlingame, CA) was used to confirm the expression of the antigen reacted with each antibody. […] When reading the staining result, if the cytoplasm is colored reddish-brown in whole or in part, it is considered that there is an immune reaction, and thus, it is read as positive. From the experimental results, the mean and standard deviation were obtained using the SPSS ver. 22.0 statistical program (SPSS Inc., Chicago, IL, USA), and the significance of the difference between the experimental groups was verified at p<0.05 level by the student t-test.

[5] = test system: severe acute respiratory syndrome coronavirus 2 (SARS-CoV2); experiment: Antiviral activity against SARS-CoV2 in Calu-3 cells, real-time qRT-PCR; type: cell-based; details: for IC50: Severe acute respiratory syndrome coronavirus 2, SARS-CoV2 in Calu-3 cells, read-out: IC50 (50% inhibition concentration), antiviral efficacy
[6] = Toxicity to Calu-3 human lung epithelial cells; type: cell-based; details: Calu-3 cells, read-out: CC50 (50% cytotoxic concentration)
Method: In order to analyze the antiviral activity of the compounds of the synthetic examples, real-time qRT-PCR (quantitative RT-PCR) was perfumed using severe acute respiratory syndrome coronavirus 2 (SARS-CoV2) and Calu-3 cells, which are human lung epithelial cells. Human lung epithelial cells (Calu-3) were cultured in Dulbecco's Modified Eagle Medium (DMEM) at 37° C. under 5% CO2. The concentration of Compound 1 was 15, 12.5, 6.25, 3.125, 1.563, 0.781, 0.391, 0.195, 0.098, 0.049, 0.024, 0.012 μM. Antiviral efficacy (IC50; 50% inhibition concentration) and toxicity to the cells (CC50; 50% cytotoxic concentration) according to drug concentration were measured at 24 hours and 48 hours after treatment on the cells by concentration, and are shown in Table 1 and FIG. 10.

[7] = 60 mg/kg oral once a day for 28 days, FIG. 5

Structure (SMILES)	generation of PMA stimulation-induced reactive oxygen species [1]	increase in the expression of αSMA ([2]; FIG. 2)	increase in the expression of collagen I ([2]; FIG. 3)	LPS-induced IL-1β expression [3]	deformation of the lung structure (H&E staining) [4, 7]	hypertrophic epithelial cells (H&E staining) [4, 7]	site of abnormal tissue deposition (H&E staining) [4, 7]	degree of infiltration of inflammatory cells into the alveolus and bronchiole (H&E staining) ([4]; 60 mg/kg oral once a day for 28 days, compared with BLM and BLM+Nintedanib groups, FIG. 5)	size of the fibrosis area and deposition of collagen due to fibrosis (Masson's trichrome staining) ([4]; 60 mg/kg oral once a day for 28 days, compared with BLM and BLM+Nintedanib groups, FIG. 6)	expression of α-SMA in lung tissue (immunohistochemical staining) ([4]; 60 mg/kg oral once a day for 28 days, compared with BLM and BLM+Nintedanib groups, FIG. 7)	expression of collagen type I (collagen I) in lung tissue (immunohistochemical staining) ([4]; 60 mg/kg oral once a day for 28 days, compared with BLM and BLM+Nintedanib groups, FIG. 8)	improved (modified) Ashcroft score [4]	SI ([5]; CC50/IC50, 24 hours)	SI ([5]; CC50/IC50, 48 hours)	IC50 ([5]; 24 hours after treatment)	IC50 ([5]; 48 hours after treatment)	CC50 at 24 h ([6]; 24 hours after treatment)	CC50 at 48 h ([6]; 48 hours after treatment)
CCCc1c(-c2ccccc2)nn(-c2ccccn2)c1O [Compound 1, 3-phenyl-4-propyl-1-(pyridin-2-yl)-1H-pyrazol-5-ol hydrochloride]	inhibited in a concentration-dependent manner	remarkably inhibited	remarkably inhibited	effectively inhibited in a concentration-dependent manner	reduced	decreased	reduced	significantly lower than that of the experimental group and the positive control group	remarkably reduced	reduced	remarkably reduced	4.0±1.1	13.80	98.50	31.5 µM	1.67 µM	435 µM	164 µM
COC(=O)c1ccc2c(c1)NC(=O)/C2=C(\Nc1ccc(N(C)C(=O)CN2CCN(C)CC2)cc1)c1ccccc1 [nintedanib, reference compound]	–	–	–	–	–	–	–	–	–	–	–	5.2±0.45	–	–	–	–	–	–
